Measured values reported in paper PMC2362861, “Potent interaction of flavopiridol with MRP1” (British Journal of Cancer, 1999).
Read-outs that look alike come from different tables or passages of the source.

What was measured:
GLC4 cells = assay: Steady-state cellular [3H]daunorubicin accumulation in GLC4 cells; format: cell-based, human; conditions: GLC4; (iso)flavonoid 50 µM (μM); 0.5 M DNR, 75 min
GLC4/ADR = assay: Growth inhibition assay, GLC4/ADR; format: cell-based, human; conditions: for IC50: Homo sapiens, GLC-4/ADR
cyclin-dependent kinases = tested on: cyclin-dependent kinases; set-up: method as in Losiewicz et al, 1996; conditions: ref Losiewicz et al, 1996; cited from earlier work
GLC4/ADR cells = assay: Steady-state cellular [3H]daunorubicin accumulation in GLC4/ADR cells; format: cell-based, human
S1(MRP) = assay: Growth inhibition assay, S1(MRP); format: cell-based, human
[1] = during continuous infusion, ref Senderowicz et al, 1998, Stinson et al; cited from earlier work
GLC4 = assay: Growth inhibition assay, GLC4; format: cell-based, human; conditions: for IC50: Homo sapiens
MRP1 ATPase activity = molecular target: T1, MRP1 ATPase activity (Homo sapiens, UniProt P33527); assay: ATPase activity of GLC4/ADR plasma membranes (colourimetric inorganic phosphate); format: biochemical
T1 construct: plasma membrane vesicles prepared from the MRP1 overexpressing cell line GLC4/ADR; endogenous in cells; host or cells: GLC4/ADR (adriamycin-selected human small-cell lung cancer subline); plasma membrane vesicles
Excerpt: One form of cellular resistance, directed against a wide spectrum of natural agents, is referred to as multidrug resistance (MDR). […] The ATP-dependent transport of anticancer drugs out of tumour cells that express MDR proteins may at least theoretically lead to impaired treatment outcome of patients. […] 1-Chloro-2,4-dinitrobenzene (CDNB) was from Sigma (St Louis, MO, USA). […] The isoflavonoid genis- tein was from ICN Biomedicals (Zoetermeer, The Netherlands). […] The (iso)flavonoids were dissolved as a stock solution of 40 mM in dimethyl sulphoxide (DMSO; Across Chimica, Belgium) and stored at -20C. Before experiments, 1:1 dilutions were made in ethanol, followed by a dilution in ethanol/water (1: 3; v/v) to the appropriate concentrations. The maximal concentration of DMSO and ethanol, which was also added to the controls, was 0.5% (v/v). Membrane filters OE67 were from Schleicher and Schuell (Dassel, Germany). Doxorubicin hydrochloride was from Laboratoire Roger Bellon (France). […] S1(MRP1) cells were cultured in the presence of G418 until 2-10 days before experiments. […] Cells were harvested by centrifugation (275 g, 5 min) and washed twice in phosphate-buffered saline. Subsequently, the cells were incubated in 100 mM potassium chloride (KCl), 5 mM magnesium chloride (MgCl2 ), 1 mM phenylmethylsulphonyl fluoride and 50 mM HEPES-KOH (pH 7.4) for 1 h at 0C, in order to allow the cells to swell. Then the cells were ultrasonicated at 20% of the maximum power of an MSE sonicator (Soniprep 150) for three bursts of 15 s. The suspension was centrifuged at 1500 g for 10 min. […] After centrifugation at 100 000 g for 60 min the interface was removed and washed in 100 mM KC1-50 mM HEPES-5 mM MgCl2 buffer (pH 7.4). The final membrane preparations were stored at -80C at a protein concentration of ~ 4 mg ml-1 . […] Vesicles were incubated in KCl-HEPES buffer (pH 7.4) at 37C (protein concentration ~ 0.25 mg ml-1 ), in the presence of 10 mM MgCl2 with or without 1 mM ATP and tritium-labelled DNP-SG. The reaction was stopped by adding ice-cold KCl-HEPES buffer. After rapid filtration, the filters were washed twice with KCl-HEPES buffer. The radioactivity on the filters was measured by liquid scintillation counting. […] Plasma membranes were incubated for 1 h in KCl-HEPES buffer (pH 7.4) at 37C, in the presence of 1 mM EGTA, 1 mM sodium azide and 0.1 mM ouabain, with or without 1 mM ATP. […] Plasma membranes from GLC4 cells (black bars) and GLC4 /ADR cells (white bars) were incubated with 10 nM DNP-SG in the absence or presence of the MIB6 antibody (MIB6) (10 g ml-1 ) or an MRP1 control antibody (10 g ml-1 ). […] In short, anti-MRP1 antibodies were tested for their capacity to inhibit DNP-SG transport into GLC4 /ADR inside-out plasma membrane vesicles.

SW1573 = assay: Growth inhibition assay, SW1573; format: cell-based; conditions: Homo sapiens, SW1573, 72 h, read-out: IC50 value
S1(1.1) = assay: Growth inhibition assay, S1(1.1); format: cell-based; conditions: Homo sapiens, 72 h, read-out: IC50 value

T1 sequence (P33527 whole entry): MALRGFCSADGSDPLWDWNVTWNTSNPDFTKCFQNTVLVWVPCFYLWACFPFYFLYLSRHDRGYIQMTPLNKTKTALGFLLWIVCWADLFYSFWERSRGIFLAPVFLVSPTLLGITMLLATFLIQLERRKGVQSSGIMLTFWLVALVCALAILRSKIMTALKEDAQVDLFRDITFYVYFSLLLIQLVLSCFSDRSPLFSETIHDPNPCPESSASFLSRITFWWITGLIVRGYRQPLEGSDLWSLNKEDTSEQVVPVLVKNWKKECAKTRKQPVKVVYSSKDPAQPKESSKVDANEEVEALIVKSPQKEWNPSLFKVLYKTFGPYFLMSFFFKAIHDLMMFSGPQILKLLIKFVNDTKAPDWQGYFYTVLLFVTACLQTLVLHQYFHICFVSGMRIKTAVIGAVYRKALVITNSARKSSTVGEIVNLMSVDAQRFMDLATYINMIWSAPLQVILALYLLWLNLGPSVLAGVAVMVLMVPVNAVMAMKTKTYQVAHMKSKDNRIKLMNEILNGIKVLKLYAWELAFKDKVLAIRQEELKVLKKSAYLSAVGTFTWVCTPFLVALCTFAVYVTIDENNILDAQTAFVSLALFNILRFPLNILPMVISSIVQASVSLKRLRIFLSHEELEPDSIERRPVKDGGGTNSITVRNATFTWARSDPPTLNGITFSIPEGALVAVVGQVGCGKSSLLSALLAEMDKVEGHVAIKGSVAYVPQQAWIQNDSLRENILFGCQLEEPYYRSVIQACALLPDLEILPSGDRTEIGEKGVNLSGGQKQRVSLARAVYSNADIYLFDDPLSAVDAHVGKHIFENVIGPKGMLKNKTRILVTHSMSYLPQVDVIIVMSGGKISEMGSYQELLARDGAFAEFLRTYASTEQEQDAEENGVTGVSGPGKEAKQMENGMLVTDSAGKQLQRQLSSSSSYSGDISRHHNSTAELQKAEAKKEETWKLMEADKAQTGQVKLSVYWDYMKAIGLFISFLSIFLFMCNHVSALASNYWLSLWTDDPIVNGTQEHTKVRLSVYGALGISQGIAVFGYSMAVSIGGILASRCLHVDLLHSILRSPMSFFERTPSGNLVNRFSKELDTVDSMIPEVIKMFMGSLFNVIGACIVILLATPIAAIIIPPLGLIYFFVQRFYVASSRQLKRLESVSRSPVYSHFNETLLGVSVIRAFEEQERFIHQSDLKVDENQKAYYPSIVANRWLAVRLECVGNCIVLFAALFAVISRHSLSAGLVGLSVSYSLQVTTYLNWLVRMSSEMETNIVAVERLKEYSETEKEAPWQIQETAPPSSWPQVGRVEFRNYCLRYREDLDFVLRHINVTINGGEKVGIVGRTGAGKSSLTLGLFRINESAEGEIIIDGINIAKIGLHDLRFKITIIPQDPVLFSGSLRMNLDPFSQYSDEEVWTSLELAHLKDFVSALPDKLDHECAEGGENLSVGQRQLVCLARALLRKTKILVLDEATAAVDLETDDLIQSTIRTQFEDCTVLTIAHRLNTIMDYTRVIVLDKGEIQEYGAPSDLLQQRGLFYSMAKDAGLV

Structure (SMILES): CN1CC[C@H](c2c(O)cc(O)c3c(=O)cc(-c4ccccc4Cl)oc23)[C@H](O)C1 [Flavopiridol, (-)cis-5,7-dihydroxy-2-(2-chlorophenyl)-8[4-(3-hydroxy-1-methyl)-piperidinyl]-4H-benzopyran-4-one]
- Accumulation of daunorubicin, mean percentages of control (set at 100%) (GLC4 cells): 104%
- Resistance compared to GLC4 (GLC4/ADR; GLC4/ADR vs GLC4): 2.8 times
- IC50 (GLC4/ADR; 72 h, read-out: IC50 value): 128 nM
- IC50 (GLC4/ADR; read-out: IC50 value): > 1000 nM
- IC50 (GLC4/ADR; read-out: IC50 values): > 1000 nM
- Potency as inhibitor of cyclin-dependent kinases compared to genistein and quercetin (cyclin-dependent kinases): 250 fold
- Effect on accumulation of DNR in GLC4/ADR cells (GLC4/ADR cells; 50 µM (μM)): increased the accumulation of DNR
- Lowest concentration tested, giving a significant increase of DNR accumulation (GLC4/ADR cells; GLC4/ADR): 100 nM
- Difference of DNR accumulation from control (P < 0.05) (GLC4/ADR cells; GLC4/ADR, all tested flavopiridol concentrations (0.1, 1, 5), Figure 6): gave a significant difference
- Concentrations at which daunorubicin accumulation is affected (GLC4/ADR cells; GLC4/ADR, only tested compound active in this range): below 1 μM
- IC50 (S1(MRP); Homo sapiens, S1(MRP), 72 h, read-out: IC50 value): 130 nM
- Resistance compared to SW1573 (S1(MRP); S1(MRP) vs SW1573): 1.5 times
- Steady-state plasma concentrations in humans [1]: 200 to 300 nM
- IC50 (GLC4; GLC4, 72 h, read-out: IC50 value): 45 nM
- IC50 (GLC4; GLC4, read-out: IC50 value): > 1000 nM
- IC50 (GLC4; GLC4, read-out: IC50 values): > 1000 nM
- Growth inhibitory potency compared to genistein and kaempferol (GLC4; Table 3, all cell lines): about 100 fold
- Concentrations at which ATPase activity of GLC4/ADR membranes was significantly induced (MRP1 ATPase activity; GLC4/ADR membranes, lowest effective concentration and higher): ≥ 1 µM
- Effect of GSH on (iso)flavonoid-induced MRP1 ATPase activity (MRP1 ATPase activity; GSH 0.5 mM or 5 mM, data not shown): no synergistic stimulation
- IC50 (SW1573): 85 nM
- IC50 (S1(1.1)): 93 nM
